Patent publication US20240335462A1, “SULFUR/PHOSPHORUS-CONTAINING ARYL COMPOUND AND APPLICATION THEREOF” (MEDSHINE DISCOVERY INC., priority 2021, published 2024)

Legend:
[1] = system: JAK1/2 signaling pathway (IL-6/pSTAT1); test: IL-6-stimulated pSTAT1 in human PBMC (flow cytometry); assay type: cell-based; details: CD4-positive cells
Experimental: The purpose of this experiment was to detect the inhibitory effect of the compounds on cytokine-activated JAK-STAT signaling pathways in human peripheral blood mononuclear cells (PBMC).
• a) PBMCs frozen in liquid nitrogen were thawed in a 37° C. water bath, and culture medium was added. The mixture was then centrifuged at 320 g for 3 minutes. • b) Cells were resuspended in culture medium, counted, and the cell concentration was adjusted to 5×10^5 cells/mL with culture medium. Subsequently, the cell suspension was inoculated into […] 96-well round-bottom plates, with 200 μL per well. The plates were incubated at 37° C. with 5% CO2 for 90 minutes. • c) Different concentrations of the test compound (starting at 2 μM, 5-fold serial dilution, a total of 8 concentrations) were added, followed by incubation at 37° C. with 5% CO2 for 30 minutes. • d) IL-6 (final concentration at 20 ng/mL) was added to the first round-bottom plate and incubated at 37° C. with 5% CO2 for 15 minutes. • e) IFNα (final concentration at 1000 U/mL) was added to the second round-bottom plate and incubated at 37° C. with 5% CO2 for 15 minutes. • f) IL-2 (final concentration at 4 ng/mL) was added to the third round-bottom plate and incubated at 37° C. with 5% CO2 for 15 minutes. • g) GM-CSF (final concentration at […]) was added to the fourth round-bottom plate and incubated at 37° C. with 5% CO2 for 15 minutes. • h) Cells were centrifuged at 320 g for 3 minutes, and each well was washed once with 200 μL of staining solution. • i) 50 μL of staining solution containing human CD33 antibody was added to each well of the GM-CSF-stimulated culture plate, and 50 μL of staining solution containing CD4 antibody was added to the remaining three culture plates. The staining was performed at 4° C. for 30 minutes. The cells were washed twice with the staining solution. • j) 100 μL of fixation buffer was added to each well, and the cells were fixed at 4° C. for 15 minutes. The cells were washed once with the staining solution. • k) 100 μL of permeabilization buffer was added to each well, and the cells were permeabilized at 4° C. for 20 minutes. The cells were washed twice with the staining solution. • l) 50 μL of staining solution containing human pSTAT1 antibody was added to each well of the IL-6 and IFN-α-stimulated culture plates, and 50 μL of staining solution containing human pSTAT5 antibody was added to each well of the IL-2 and GM-CSF-stimulated culture plates. The staining was performed at room temperature for 15 minutes. The cells were washed twice with the staining solution. • m) The cells were resuspended in 150 μL of staining solution. • n) The fluorescence intensity of pSTAT1 (stimulated by IL-6 and IFN-α) or pSTAT5 (stimulated by IL-2) in CD4-positive cells was detected using flow cytometer. The fluorescence intensity of pSTAT5 (stimulated by GM-CSF) in CD33-positive cells was also detected.
Data analysis was performed using Flowjo software to determine the IC50 of the compounds.

[2] = target: Ba/F3-FL-TYK2-E957D cells (Homo sapiens, UniProt P29597, E957D, cells depend on it); test: Proliferation of Ba/F3-FL-TYK2-E957D cells (CellTiter-Glo); assay type: cell-based, mouse; details: 72 hours, read-out: Half maximal inhibitory concentration IC50 for cells Ba/F3-FL-TYK2-E957D
Chain of Ba/F3-FL-TYK2-E957D cells (P29597 whole entry E957D): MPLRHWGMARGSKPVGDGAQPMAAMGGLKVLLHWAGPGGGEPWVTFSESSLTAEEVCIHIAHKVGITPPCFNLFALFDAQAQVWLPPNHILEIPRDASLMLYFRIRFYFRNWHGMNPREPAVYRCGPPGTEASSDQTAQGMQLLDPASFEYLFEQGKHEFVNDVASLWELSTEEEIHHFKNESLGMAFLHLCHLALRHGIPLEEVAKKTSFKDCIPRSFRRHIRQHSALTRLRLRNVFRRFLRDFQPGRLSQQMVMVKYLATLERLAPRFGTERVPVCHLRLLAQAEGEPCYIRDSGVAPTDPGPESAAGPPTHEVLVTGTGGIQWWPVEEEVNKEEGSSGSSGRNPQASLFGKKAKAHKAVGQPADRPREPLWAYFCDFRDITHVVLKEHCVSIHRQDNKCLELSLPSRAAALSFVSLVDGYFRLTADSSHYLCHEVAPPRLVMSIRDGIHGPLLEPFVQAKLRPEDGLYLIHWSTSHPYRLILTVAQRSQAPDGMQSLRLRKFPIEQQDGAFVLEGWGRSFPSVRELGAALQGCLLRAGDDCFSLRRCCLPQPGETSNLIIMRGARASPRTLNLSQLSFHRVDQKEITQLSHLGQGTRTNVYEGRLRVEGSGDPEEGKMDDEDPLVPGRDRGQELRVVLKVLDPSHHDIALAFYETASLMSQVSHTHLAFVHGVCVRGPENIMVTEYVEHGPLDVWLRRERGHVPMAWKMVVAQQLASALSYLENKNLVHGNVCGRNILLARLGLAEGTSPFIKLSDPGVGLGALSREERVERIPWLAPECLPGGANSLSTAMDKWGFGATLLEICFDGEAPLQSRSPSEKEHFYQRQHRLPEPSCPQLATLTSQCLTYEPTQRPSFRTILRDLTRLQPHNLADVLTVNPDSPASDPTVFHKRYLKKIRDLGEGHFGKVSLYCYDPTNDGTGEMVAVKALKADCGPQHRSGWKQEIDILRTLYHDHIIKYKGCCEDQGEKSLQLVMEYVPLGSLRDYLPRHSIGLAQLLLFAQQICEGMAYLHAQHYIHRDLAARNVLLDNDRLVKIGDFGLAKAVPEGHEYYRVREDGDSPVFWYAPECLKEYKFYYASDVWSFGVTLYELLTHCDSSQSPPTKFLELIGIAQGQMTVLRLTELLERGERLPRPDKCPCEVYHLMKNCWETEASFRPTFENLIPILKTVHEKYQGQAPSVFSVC
Method in brief: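 Ba/F3 cells stably expressing human full-length TYK2-E957D (JH1+JH2) or TEL-TYK2 (JH1 only) were plated at 2000 cells/well with 9-point 3-fold compound dilutions (0.1% DMSO) for 72 h at 37° C. Viable cells were measured by CellTiter-Glo luminescence; IC50 came from nonlinear S-curve fits.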

Ba/F3-TEL-TYK2 cells = test: Proliferation of Ba/F3-TEL-TYK2 cells (CellTiter-Glo); assay type: cell-based; details: 72 hours, read-out: Half maximal inhibitory concentration IC50 for cells Ba/F3-TEL-TYK2
Description: Adenosine triphosphate (ATP) serves as a universal energy carrier in various life processes, representing the smallest unit of energy storage and transfer. The CellTiter-Glo™ Luminescent Cell Viability Assay Kit utilizes luciferase as a detection agent. During the luminescent process, luciferase requires the participation of ATP. By adding CellTiter-Glo™ reagent to the cell culture medium and measuring the luminescence, the light signal was directly proportional to the amount of ATP in the system, and ATP was positively correlated with the number of viable cells. Therefore, cell proliferation can be detected by measuring ATP content using the CellTiter-Glo kit. In this test, the cell lines used were Ba/F3-FL-TYK2-E957D and Ba/F3-TEL-TYK2. Ba/F3-FL-TYK2-E957D cells can stably express the exogenously introduced human TYK2-E957D gene, and the TYK2-E957D gene sequence contains both JH1 and JH2 domains. On the other hand, Ba/F3-TEL-TYK2 cells can stably express the exogenously introduced human TEL-TYK2 gene, and the TEL-TYK2 gene sequence contains only the JH1 domain of TYK2.
The cell lines were cultured in an incubator at 37° C. with 5% CO2. Regular passaging was performed, and cells in the logarithmic growth phase were selected for plating.
• a) The test compounds were prepared into a 10 mM solution with DMSO, and then diluted to 0.3 or 1 mM with DMSO. • b) Preparation of 1000× compound storage plate (tube): The compounds were 3-fold serially diluted from the highest concentration to the lowest concentration, creating 9 different concentrations. • c) Preparation of 20× compound working solution: 49 μL of cell culture medium was added to a flat-bottomed 96-well transparent drug plate. From the 1000× compound storage plate, 1 μL of the compound was pipetted into the cell culture medium in the 96-well transparent drug plate. In the solvent control, 1 μL of DMSO was added. After the compound or DMSO was added, the mixture was homogenized using a multi-channel pipette.
• a) Cells were stained with trypan blue and viable cells were counted to ensure a cell viability of 90% or more. • b) 95 μL of cell suspension (2000 cells/well) was added to each well of the compound assay cell plate, and cell-free culture medium containing 0.1% DMSO was added to the Min control wells. • c) Administration in the compound assay cell plate: 5 μL of 20× compound working solution was added to the cell culture plate. 5 μL of DMSO-cell culture medium mixture was added to the Max control wells. The final concentration of DMSO was 0.1%. • d) The culture plate was then incubated in an incubator at 37° C. with 5% CO2 for 72 hours.
The following steps were conducted in accordance with the instructions of the Promega CellTiter-Glo Luminescent Cell Viability Assay Kit (Promega-G7573). • a) CellTiter-Glo buffer was thawed and brought to room temperature. • b) CellTiter-Glo substrate was also brought to room temperature. • c) CellTiter-Glo buffer was added to a bottle of CellTiter-Glo substrate to dissolve the substrate, thereby preparing CellTiter-Glo working solution. • d) The mixture was slowly vortexed and shaken to be fully dissolved. • e) The cell culture plate was removed and allowed to equilibrate to room temperature for 10 minutes. • f) 50 μL (equal to half the volume of cell culture medium in each well) of CellTiter-Glo working solution was added to each well. • g) The culture plate was shaken on an orbital shaker for 2 minutes to induce cell lysis. • h) The plate was then left at room temperature for 10 minutes to stabilize the luminescent signal. • i) The luminescent signal was detected using a SpectraMax Paradigm plate reader.
Data analysis was conducted using GraphPad Prism 5.0 software. Nonlinear S-curve regression was employed to fit the data and generate dose-response curves. From these curves, the IC50 values were calculated.

CNC(=O)c1nnc(NC(=O)C2CC2)cc1Nc1cccc(-c2ncc(S(=N)(=O)C(C)C)cn2)c1OC (single isomer, unassigned) [WX-011A]
IC50 [1]: 87 nM | GI50 [2]: 5.3 nM | IC50 (Ba/F3-TEL-TYK2 cells): > 10 µM

CNC(=O)c1nnc(NC(=O)C2CC2)cc1Nc1cccc(-c2ncc(S(=N)(=O)C(C)C)cn2)c1OC (single isomer, unassigned) [WX-011B]
IC50 [1]: 72.5 nM | GI50 [2]: 3.3 nM | IC50 (Ba/F3-TEL-TYK2 cells): > 10 µM

CNC(=O)c1nnc(NC(=O)C2CC2)cc1Nc1cccc(-c2ccc(S(=N)(=O)C(C)C)cn2)c1OC (single isomer, unassigned) [WX-012A]
IC50 [1]: 52.4 nM | GI50 [2]: 3.3 nM | IC50 (Ba/F3-TEL-TYK2 cells): > 10 µM

CNC(=O)c1nnc(NC(=O)C2CC2)cc1Nc1cccc(-c2ccc(S(=N)(=O)C(C)C)cn2)c1OC (single isomer, unassigned) [WX-012B]
IC50 [1]: 32.5 nM | GI50 [2]: 2.4 nM | IC50 (Ba/F3-TEL-TYK2 cells): > 10 µM

CNC(=O)c1cnc(NC(=O)C2CC2)cc1Nc1cccc(-c2ccc(S(=O)(=O)C(C)C)cn2)c1OC.Cl [Hydrochloride of WX-020]
IC50 [1]: 164 nM | GI50 [2]: 1.5 nM | IC50 (Ba/F3-TEL-TYK2 cells): > 10 µM

CNC(=O)c1cnc(NC(=O)C2CC2)cc1Nc1cccc(-c2ncc(S(=O)(=O)C(C)C)cn2)c1OC [WX-019]
IC50 [1]: 99.7 nM | GI50 [2]: 2 nM | IC50 (Ba/F3-TEL-TYK2 cells): > 10 µM

CNC(=O)c1nnc(NC(=O)C2CC2)cc1Nc1cccc(-c2ccc(P(=O)(C3CC3)C3CC3)cn2)c1OC [WX-021]
IC50 [1]: 63.4 nM | GI50 [2]: 2.5 nM | IC50 (Ba/F3-TEL-TYK2 cells): > 10 µM
